This is an account of results in patent publication US20260000710A1, “Novel Treatments for Cardiovascular Related Disease” (priority 2022, published 2026).

The subject of assay [1] is purified MHC molecules (28 common HLA DP, DQ and DR alleles). The experiment in a line: HLA class II competition binding assay (inhibition of radiolabeled ligand binding). Also noted: species or system human. The conditions noted are these: alleles bound at <1000 nM threshold. On the procedure: Peptides predicted to bind most (≥75%) of the alleles, were experimentally verified in HLA-II binding assays^31. For each peptide, the number of alleles that bound at a <1000 nM threshold level was tabulated. Top 20 promiscuous binders (bind >50% of reference alleles) were selected for further study (FIG. 9A, Table 2).
Next, the capacity of these peptides to bind 28 common HLA alleles (27 from the reference set plus DPB1*03:01) was determined experimentally using classical competition assays based on the inhibition of binding of high affinity radiolabeled ligands to purified MHC molecules^3. Under the conditions utilized, where [radiolabeled peptide] is <[MHC], and [MHC]<[inhibitor peptide], the measured IC50 values, defined as the concentrations of inhibitor peptide that inhibits the binding of the radiolabeled ligand by 50%, are reasonable estimates of true Kd values.

For a further assay, the system named is PBMCs. The assay is described as follows: IFNγ ELISpot after 14-day in vitro expansion and re-stimulation. The class given is cell-based, human.
The target in assay [2] is 28 common HLA alleles (27 from the reference set plus DPB1*03:01), purified MHC molecules. The experiment in a line: competition assay, inhibition of radiolabeled ligand binding to purified HLA class II; bound = IC50 <1000 nM.

Protocol for PBMCs: To do this, the inventors used the optimized IFNγ ELISpot assay (FIG. 1A) because Th1 cytokine response to APOB peptides is most robust (FIG. 9D) and easily detectable in high-throughput screens. PBMCs from HLA-typed donors (demographics and HLA-II alleles in Tables 5, 6) were incubated with the APOB20 pool for 14 days with intermittent IL-2 feeding (schematic in FIG. 11A). […] Restimulation with the APOB20 pool and with PHA-L served as positive controls, and unstimulated cells were negative controls. For each donor, APOB peptide-specific restimulation conditions were run in triplicate wells and the average number of spot-forming cells (SFCs) per 10^6 PBMCs was calculated. To determine responder frequencies, a positive response was defined based on established criteria set for detection of responses to other autoantigenic epitopes^4. (1) ≥100 spot-forming cells per 10^6 PBMCs; (2) stimulation index ≥2 (3) p≤0.01 by Student's t-test, mean response in stimulated vs unstimulated replicate wells.
Expansion of antigen-specific T cells and Enzyme-linked immunospot (ELISpot) assay. For in vitro expansion, PBMCs were plated at a density of 2×10^6 cells/ml in 24-well plates and were cultured in the presence of APOB20 and CEFX-II peptide pools. […] Wells were imaged and spot-forming cells (SFCs) were quantified using the Zeiss KS or AID (Autoimmun Diagnostika) ELISpot readers. […]

As for HFSNVFRSVMAPFTM [Peptide 7], the “No. of HLA-II alleles bound” value in assay [1] is reported as 22.
In the case of HVKHFVINLIGDFEV [Peptide 10], the “No. of HLA-II alleles bound” value in assay [1] came to 21.
The same measure, in the same setting: the value for IKHIYAISSAALSAS [Peptide 6] was 20.
For the molecule ILFSYFQDLVITLPF [Peptide 17], the “No. of HLA-II alleles bound” value in assay [1] was 17.
Same read-out and setting: with KFTYLINYIQDEINT [Peptide 18] the figure was 19.
As to KIVSLIKNLLVALKD [Peptide 20], in assay [1], the “No. of HLA-II alleles bound” value came out at 20.
LEVLNFDFQANAQLS [Peptide 12]: the “No. of HLA-II alleles bound” value in assay [1] worked out at 18.
LIINWLQEALSSASL [Peptide 11]: the “No. of HLA-II alleles bound” value in assay [1] is recorded as 17.
In the case of LSQLQTYMIQFDQYI [Peptide 9], the “No. of HLA-II alleles bound” value in assay [1] is 17.
As to QIHQYIMALREEYFD [Peptide 19], in assay [1], the “No. of HLA-II alleles bound” value was found to be 25.
QLYSKFLLKAEPLAF [Peptide 8]: in assay [1], the “No. of HLA-II alleles bound” value came to 27.
Still for that read-out and setting: with RGLKLATALSLSNKF [Peptide 15] the figure was 23; with SLFFSAQPFEITAST [Peptide 13], 23.
As for TLTAFGFASADLIEI [Peptide 2], the “response with pan-HLA-DR blocking antibody” value in the assay on PBMCs (donor 1, HLA-DR alleles with strong binding affinities for the peptide) is on record as “inhibited responses”. For the same molecule, the “immunogenicity under HLA-DR blockade” value in the assay with PBMCs (donor 2, DQ and DP binder alleles and DR non-binder alleles) was “remained unaffected”. In addition, in assay [1], the “No. of HLA-II alleles bound” value is on record as 21.
VEFVTNMGIIIPDFA [Peptide 4]: in assay [1], the “No. of HLA-II alleles bound” value is 18.
Consider VGSKLIVAMSSWLQK [Peptide 5], for which, in assay [1], the “No. of HLA-II alleles bound” value was 21.
As for YKKLRTSSFALNLPT [Peptide 16], the “No. of HLA-II alleles bound” value in assay [1] amounted to 21.
With LEVLNFDFQANAQLS [APOB peptide 12 (…)], the No. of HLA-II alleles bound in assay [2] came out at 18 alleles.
On to TLTAFGFASADLIEI [APOB peptide 2 (…)], for which the No. of HLA-II alleles bound in assay [2] worked out at 21 alleles.
Same read-out and setting: with QIHQYIMALREEYFD [APOB peptide 19 (…)] the figure was 25 alleles.
As to HFSNVFRSVMAPFTM [APOB peptide 7 (…)], in assay [2], the No. of HLA-II alleles bound was found to be 22 alleles.
On the same count and under the same terms, with VGSKLIVAMSSWLQK [APOB peptide 5 (…)] the figure was 21 alleles; with IKHIYAISSAALSAS [APOB peptide 6 (…)], 20 alleles.
On the same count and under the same terms, with QLYSKFLLKAEPLAF [APOB peptide 8 (…)] the figure was 27 alleles; with KFTYLINYIQDEINT [APOB peptide 18 (…)], 19 alleles.
Regarding KIVSLIKNLLVALKD [APOB peptide 20 (…)], in assay [2], the No. of HLA-II alleles bound was determined as 20 alleles.
Consider LSQLQTYMIQFDQYI [APOB peptide 9 (…)], for which, in assay [2], the No. of HLA-II alleles bound amounted to 17 alleles.
Turning to SLFFSAQPFEITAST [APOB peptide 13 (…)], the No. of HLA-II alleles bound in assay [2] was found to be 23 alleles.
The same measure, in the same setting: the value for VEFVTNMGIIIPDFA [APOB peptide 4 (…)] was 18 alleles.
On the same count and under the same terms, with DKRLAAYLMLMRSPS [APOB peptide 1 (…)] the figure was 23 alleles.
For LIINWLQEALSSASL [APOB peptide 11 (…)], the No. of HLA-II alleles bound in assay [2] is 17 alleles.
As to FLHYIFMENAFELPT [APOB peptide 3 (…)], in assay [2], the No. of HLA-II alleles bound stood at 24 alleles.
Turning to YKKLRTSSFALNLPT [APOB peptide 16 (…)], the No. of HLA-II alleles bound in assay [2] was found to be 21 alleles.
On to GKIDFLNNYALFLSP [APOB peptide 14 (…)], for which the No. of HLA-II alleles bound in assay [2] stood at 23 alleles.
As for ILFSYFQDLVITLPF [APOB peptide 17 (…)], the No. of HLA-II alleles bound in assay [2] amounted to 17 alleles.
As to HVKHFVINLIGDFEV [APOB peptide 10 (…)], the No. of HLA-II alleles bound in assay [2] stood at 21 alleles.
